Measurements taken from patent US8653304B2, “2,3-dihydro-1H-indene-2-yl urea derivative and pharmaceutical application of same” (Toray Industries, Inc., priority 2009, dated 2014).
pIC50: −log10 of the molar value.

Columns and labels:
TNFα production [1] = assay: Mouse LPS-induced cytokine production model; type: in vivo; details: BALB/c mouse, 50 mg/kg oral 30 minutes before LPS 1 mg/kg i.p., serum 60 minutes after LPS
Experimental: The action of Compound (I) on the TNFα production induced by LPS administration in a mouse was studied by a method partially modified from the method described in Journal of Immunology (1992, Vol. 148, pp. 1890-1897).
To each BALB/c mouse (male, 7 to 9-week old, Charles River Laboratories Japan, Inc.), LPS (0111:B4, SIGMA) was intraperitoneally administered at a dose of 1 mg/kg. Sixty minutes after the LPS administration, blood was collected from the abdominal vena cava under anesthesia and centrifuged for 15 minutes at 4° C. to obtain a serum. For the measurement of TNF-α in the serum, ELISA Development System (R&D Systems) was used. Each test compound was dissolved in DMSO (Final Concentration: 2%), and then the obtained solution was dissolved in a 27% aqueous solution of 2-hydroxypropyl-β-cyclodextrin (hereinafter referred to as “HP-β-CD”; Nihon Shokuhin Kako Co., Ltd.). Thirty minutes before the LPS administration, the resulting solution was orally administered at 50 mg/kg.

[2] = Metabolic stability in human CYP (human liver microsomes); type: in vitro ADME; details: human liver microsomes 0.5 mg/mL, NADPH, 37° C., comparative control compounds 5 μM
Experimental: Each test compound was mixed at a concentration of 2 μM with a phosphate buffer solution containing Human liver microsomes (Xenotech) in an amount of 0.5 mg/mL. Thereafter, NADPH was added thereto, and the obtained mixture was allowed to react at 37° C. for up to 30 minutes. The reaction was terminated by adding acetonitrile, and then the resultant was centrifuged for 10 minutes at 4° C. to collect a supernatant. The supernatant was pretreated by methanol extraction method, and the concentration of the compound was analyzed by LC/MS/MS (ESI positive mode). The compound remaining rate was calculated from the obtained concentration of the compound.

[3] = tested on: hyperalgesia in Bennett model; assay: Hyperalgesia in neuropathic pain model (Bennett model), plantar test; type: in vivo; details: SD rat, Bennett model day 14, oral 100 mg/kg, 90 minutes after administration; FIG. 2
Text: The action of Compound (I) on hyperalgesia in pain models was studied. As the pain models, models partially modified from an inflammatory pain model (a carrageenin paw edema pain model) and neuropathic pain models (Bennett model and Chung model) described in documents (Anesth. Analg., 2009, Vol. 108, pp. 1680-1687; Pain, 1988, Vol. 33, pp. 87-107; and Pain, 1992, Vol. 50, pp. 355-363) were used.
The Bennett model was produced by lightly ligating the sciatic nerve in the left thigh of each Crl:CD (SD) rat (male, 6-week old, Charles River Laboratories Japan, Inc.) at 4 points with chromic catgut (4-0). Fourteen days after the Bennett model was produced, each test compound was orally administered, and plantar test was performed 90 minutes after the administration. The plantar test was carried out by measuring the pain threshold (sec) of the left footpad (model foot) using a plantar thermal stimulation device (Plantar test 7370, Ugo Basile) wherein the thermal stimulus intensity was set to 60. Each test compound was suspended in 0.5 w/v % methylcellulose (Wako Pure Chemical Industries, Ltd.) and the obtained solution was orally administered. Compound 46b described in the Examples was administered at a dose of 100 mg/kg, and gabapentin (Toronto Research Chemicals), which is an anticonvulsant, was administered as a comparative control agent at a dose of 100 mg/kg.

human p38 MAPK α = human p38 MAPK α (Homo sapiens (Human), UniProt Q16539); assay: Evaluation of p38 MAPK inhibitory activity (Alpha Screen, ATF2 phosphorylation); type: biochemical; details: p38α/SAPK2a 1.5 nM, ATP 100 μM, biotinylated ATF2 30 nM
human p38 MAPK α, sequence (Q16539 whole entry): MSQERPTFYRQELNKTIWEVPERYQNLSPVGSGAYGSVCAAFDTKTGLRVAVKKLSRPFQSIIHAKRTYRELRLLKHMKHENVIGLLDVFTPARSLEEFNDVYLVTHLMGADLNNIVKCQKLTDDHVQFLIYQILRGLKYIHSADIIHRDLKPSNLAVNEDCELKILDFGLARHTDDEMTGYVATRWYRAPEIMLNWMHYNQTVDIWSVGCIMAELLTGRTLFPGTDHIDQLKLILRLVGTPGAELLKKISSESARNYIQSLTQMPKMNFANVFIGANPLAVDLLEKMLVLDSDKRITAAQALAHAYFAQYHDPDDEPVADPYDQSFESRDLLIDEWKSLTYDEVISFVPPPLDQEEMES
Experimental: Using human p38 MAPK α, the p38 MAPK inhibitory activity of Compound (I) was studied by a method partially modified from the method described in Current Medicinal Chemistry (2004, No. 11, pp. 721-730).
A solution of each test compound solution in 100% DMSO and a p38α/SAPK2a solution (Final Concentration: 1.5 nM) (Invitrogen) were added to a 384-well plate, and then the plate was incubated at room temperature in a dark place for 1 hour. Thereafter, ATP (Final Concentration: 100 μM), which is a phosphate donor, and biotinylated ATF2 (Final Concentration: 30 nM) (upstate), which is a substrate, were added, and the resulting mixture was allowed to react at room temperature in a dark place for 1 hour (the final concentration of DMSO was 0.25%). After the reaction, an anti-phosphorylated ATF2 antibody (Final Concentration: 1 nM) (Cell Signaling), anti-IgG acceptor beads (Final Concentration: 20 μg/mL) (PerkinElmer) and streptavidin donor beads (Final Concentration: 20 μg/mL) (PerkinElmer) were added, and the resultant was incubated at room temperature in a dark place for 1 hour. Using a microplate analyzer (Fusion-α, Packard) in Alpha Screen method (Amplified Luminescent Proximity Homogeneous Assay), the light emission was detected. The IC50 value of each compound was calculated by sigmoidal dose-response regression using Prism 4.02 (GraphPad Software, Inc.).

[4] = tested on: colonic disorders in DSS-induced chronic colitis model; assay: Colonic disorders in DSS-induced chronic colitis model; type: in vivo; details: BALB/c mouse, oral 10 mg/kg once Day 27, twice a day Day 28-31; scores Day 28-32
Text: (§1) The action of Compound (I) on colonic disorders in inflammatory bowel disease models was studied. As the inflammatory bowel disease models, models partially modified from a TNBS-induced colitis model and a DSS-induced chronic colitis model described in documents (Gastroenterology, 1989, Vol. 96, pp. 29-36 and Am. J. Physiol. Gastrointest. Liver Physiol., 2004, Vol. 287, pp. G115-124) were used.
To each BALB/cCrSlc mouse (female, 9-week old, Japan SLC, Inc.), DSS (Molecular Weight: 36-50 kDa; MP Biomedicals) dissolved in sterile ultrapure water was administered via free drinking for 5 days from the day of the start of the administration via drinking water (this day was considered as Day 0 after the start of the administration via drinking water), and then switched to administration of sterile ultrapure water via free drinking for 5 days. This cycle was repeated again, and DSS was further administered via free drinking for another 7 days to produce the colitis model. As an index of colitis symptoms, stool consistency scores were used. The stool consistency scores were based on the following criteria: normal stool was defined as score 0; loose stool was defined as score 2; and diarrhea was defined as score 4. […]

[5] = tested on: colonic disorders in TNBS-induced colitis model; assay: Colonic disorders in TNBS-induced colitis model; type: in vivo; details: Wistar rat, oral 3 mg/kg once on TNBS day then twice a day for 4 days, colon 5 days after TNBS
Text: as §1
To each Slc:Wistar rat (male, 12-week old, Japan SLC, Inc.), TNBS (Wako Pure Chemical Industries, Ltd.) dissolved in ethanol was rectally administered under anesthesia, and the TNBS solution was held in the rectum for 1 hour to produce the colitis model. These rats had been fasted from 2 days before the TNBS administration to the day of the TNBS administration. Five days after the TNBS administration, the colon was isolated from the each rat, and the macroscopic damage score (which is a total of adhesion score, diarrhea score and ulcer score) was recorded as an index of damage in the colon. The macroscopic damage score was calculated based on the scores of Dubigeon et al. (Eur. J. Pharmacol., 2001, Vol. 431, pp. 103-110) and the scores of Venkova et al. (J. Pharmacol. Exp. Ther., 2004, Vol. 308, pp. 206-213). […]

[6] = tested on: skin swelling response in type I allergic dermatitis model; assay: Skin swelling response in type I allergic dermatitis model; type: in vivo; details: BALB/c mouse, 20 μL of 0.5 w/v % solution applied to auricle 1 hour before induction
Text: (§2) The action of Compound (I) on skin swelling response in mouse allergic dermatitis models was studied. As the allergic dermatitis models, models partially modified from a type I allergic dermatitis model and a type IV allergic dermatitis model described in documents (Inflamm. Res., 1998, Vol. 47, pp. 506-511 and Int. Arch. Allergy. Appl. Immunol., 1990, Vol. 92, pp. 356-360) were used.
To each BALB/c mouse (female, 7-week old, Charles River Laboratories Japan, Inc.), mouse IgE anti-DNP antibody (0.05 mg/body, […] CORPORATION) was intravenously administered to passively sensitize the mouse. Twenty four hours after the sensitization, 20 μL of 0.38% DNFB (SIGMA) dissolved in acetone:olive oil (4:1) was applied to the auricle of the mouse to induce inflammation. From after the induction to 24 hours, the thickness of the auricle was measured with time using a Digimatic Indicator (Mitutoyo). Each test compound was dissolved in ethanol, and 20 μL of 0.5 w/v % solution was applied to the auricle at 1 hour before the induction.
The swelling ratio of the auricle was calculated according to the following equation. […] Auricular Swelling Ratio(%)=(A−B)/B×100

[7] = tested on: skin swelling response in type IV allergic dermatitis model; assay: Skin swelling response in type IV allergic dermatitis model; type: in vivo; details: BALB/c mouse, 24 hours after induction
Experimental: as §2
To the back of each BALB/c mouse (female, 7-week old, Charles River Laboratories Japan, Inc.), 25 μL of 0.5% DNFB solution dissolved in acetone:olive oil (4:1) was applied. On the next day, the same operations were repeated to actively sensitize the mouse. Four days after the sensitization, 20 μL of 0.2% DNFB solution dissolved in acetone:olive oil (4:1) was applied to the auricle of the sensitized mouse to induce inflammation. Twenty four hours after the induction, the thickness of the auricle was measured using a Digimatic Indicator (Mitutoyo). Each test compound was dissolved in ethanol and 20 μL of 0.5 w/v % solution was applied to the auricle at 1 hour before the induction; or each test compound was suspended in 0.5% methylcellulose (Wako Pure Chemical Industries, Ltd.) and the resulting solution was orally administered at 30 mg/kg at 1 hour before the induction. The swelling ratio of the auricle was calculated according to the following equation: Auricular Swelling Ratio(%)=(A−B)/B×100

TNFα production [8] = assay: Cytokine production suppressing activity using human whole blood (LPS stimulation); type: cell-based; details: LPS 200 ng/mL, 37° C., 5 hours
Experimental: Using human whole blood, the inhibitory action of Compound (I) on the TNFα production by LPS stimulation was studied by a method partially modified from the method described in Journal of Medicinal Chemistry (2003, Vol. 46, pp. 4676-4686).
A solution of each test compound in 100% DMSO and human blood were mixed in a 96-well flat-bottom plate. Thereafter, LPS (Final Concentration: 200 ng/mL) was added, and the resulting mixture was allowed to react at 37° C. for 5 hours (the final concentration of DMSO was 0.2%). After the reaction, the resultant was centrifuged for 20 minutes at room temperature, and the supernatant was collected. For the measurement of the TNFα amount in the supernatant, a human cytokine kit (CIS bio international) was used. As a comparative control compound, Comparative Compound 2 was used.

Compound: COc1c(NC(=O)N[C@@H]2Cc3ccccc3[C@@H]2O)cc(C(C)(C)C)cc1C(C)(C)C#N [Comparative Compound 3, 1-(5-tert-butyl-3-(2-cyanopropan-2-yl)-2-methoxyphenyl)-3-((1S,2R)-1-hydroxy-2,3-dihydro-1H-indene-2-yl)urea, reference compound]
- Suppression Ratio of TNFα production (TNFα production [1]): 17.0%
- microsomal CLint at 5 μM [2]: 450 µL/min/mg

Compound: NCC1(CC(=O)O)CCCCC1 [gabapentin, reference compound]
- pain threshold (sec), plantar test, compared to solvent-administered group [3]: significant difference

Compound: COc1c(NC(=O)N[C@H]2Cc3c(F)cccc3[C@H]2O)cc(C(C)(C)C)cc1[C@@H](O)C(F)(F)F (single isomer, unassigned) [Compound 50b]
- pIC50 (human p38 MAPK α): 7.46
- stool consistency score (total) [4]: 6.5±0.6
- macroscopic damage score [5]: 5.2±1.1
- suppression ratio on immediate response (auricular swelling AUC 0-4 hours) [6]: 33.4%
- suppression ratio on late response (auricular swelling AUC 5-10 hours) [6]: 50.2%
- suppression ratio of auricular swelling, oral administration ([7]; 30 mg/kg oral 1 hour before induction): 54.4%
- suppression ratio of auricular swelling, auricular application ([7]; 20 μL of 0.5 w/v % solution on auricle 1 hour before induction): 48.0%
- pIC50 (TNFα production [8]): 7.34
